According to article PMC9606171, “Synthetic PPAR Agonist DTMB Alleviates Alzheimer’s Disease Pathology by Inhibition of Chronic Microglial Inflammation in 5xFAD Mice” (Neurotherapeutics, 2022):

How the values were obtained:
5xFAD mice = test: Immunohistochemistry of gliosis (Iba-1, GFAP) in 5xFAD brain; type: in vivo; conditions: cortex and hippocampus, versus transgenic controls
Procedure: DTMB was synthesized from Daejung Chemicals (Korea) and was dissolved in dimethyl sulfoxide (Sigma Aldrich, St. Louis, MO, USA) for cell-based experiments. To evaluate the effects of DTMB on 5xFAD mice, DTMB (10 mg/kg) and vehicle (1% carboxymethylcellulose and 10% DMSO) were orally administrated to four groups (wild-type, wild-type + DTMB, 5xFAD, and 5xFAD + DTMB) with a 6 day per week for 3 months.
Mice were perfused with ice-cold phosphate-buffered saline (PBS). Brain tissues were separately used for either molecular analysis or immunohistochemistry. The right hemisphere was fixed with 4% PFA and was transferred to a sucrose solution (30%) for 24 h. The right hemisphere was embedded and frozen in optimal cutting temperature compound on dry ice. Coronal Sections (18 μm thick) that included the hippocampus were cut and prepared on slide glasses. Tissue sections were then permeabilized and blocked using a blocking solution (5% goat serum and 0.2% Triton X-100 in PBS) for 1 h at room temperature. Primary antibody incubation was performed overnight at 4 °C using an anti-6e10 antibody (Biolegend, Japan, 1:100), anti-Iba1 antibody (Wako, Japan, 1:200), and anti-GFAP antibody (Abcam, Cambridge, UK, 1:200). […] Slides were counterstained in Hoechst and then mounted in fluorescence mounting medium (Dako, Denmark). […] Fluorescence was measured by calculating % area and was analyzed using ImageJ. […]

RAW 264.7 = test: Cell viability assay (MTT), RAW 264.7; type: cell-based; conditions: 48 h
Procedure: (§1) Cell viability was measured by chromogenic assay involving the biological reduction of 3-(4,5-dimethyl-thiazol-2-yl)-2,5-diphenyltetrazoliumbromide (MTT) to formazan in living cells. Briefly, cells were seeded in 96-well plates in a final volume of 100 μL. After 24 h, the culture media were replaced with fresh media containing DTMB compounds, and the cells were cultured for another 48 h. Next, MTT (5 mg/mL in PBS) was added to the culture medium. The cells were incubated for 1 h in the dark at 37 °C, and the supernatant was then removed from the well. Total MTT solvent (4 mM HCl and 0.1% Nonidet P-40, both in isopropanol) was added to dissolve the formazan crystal, and absorbance was measured at 570 nm using a microplate reader Infinite 200 Pro NanoQuant microplate reader (TECAN, Switzerland).

BV2 = test: Cell viability assay (MTT), BV2; type: cell-based, mouse; conditions: 48 h
Procedure: as §1

PPARγ = target: T1, PPARγ (Homo sapiens, UniProt P37231); test: Gal4-transactivation luciferase assay in HEK293A cells, PPARγ LBD; type: cell-based
T1 construct: pcDNA5-GAL4-PPAR LBD, pG5-luc, and Rluc vector (as control) were transfected into HEK293A cells; expressed in transfected cells; host or cells: HEK293A
T1 sequence (P37231 238-503 limits assumed): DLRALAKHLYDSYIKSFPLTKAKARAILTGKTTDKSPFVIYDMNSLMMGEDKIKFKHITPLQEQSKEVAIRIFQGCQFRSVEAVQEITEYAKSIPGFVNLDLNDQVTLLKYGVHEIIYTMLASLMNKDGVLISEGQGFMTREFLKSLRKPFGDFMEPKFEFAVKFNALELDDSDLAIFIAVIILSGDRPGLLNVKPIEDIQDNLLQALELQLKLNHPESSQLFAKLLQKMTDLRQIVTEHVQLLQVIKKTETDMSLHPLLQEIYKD
Procedure: (§2) HEK293A cells were transfected with the GAL4-reporter plasmids and pGL4.74 (Promega, Madison, WI, USA) as an internal standard through electroporation using a Neon Transfection System (Invitrogen, Carlsbad, CA, USA). All vector materials were provided by Professor Yuichiro Kanno at Toho University. Cells were treated with DTMB and each positive control compound for 24 h after overnight incubation. Cells were then harvested and resuspended in luciferase lysis buffer (Promega), followed by incubation on ice for 10 min. Cell debris was removed by centrifugation at 20,000 × g at 4 °C for 10 min, and the supernatants were used for luciferase assay. Using a dual-luciferase reporter assay system (Promega), luciferase activities were measured according to the manufacturer’s instructions. Experimental firefly luciferase activities were normalized against those of Renilla luciferase.

PPARα = target: T2, PPARα (Homo sapiens, UniProt Q07869); test: Gal4-transactivation luciferase assay in HEK293A cells, PPARα LBD; type: cell-based
T2 construct: pcDNA5-GAL4-PPAR LBD, pG5-luc, and Rluc vector (as control) were transfected into HEK293A cells; expressed in transfected cells; host or cells: HEK293A
T2 sequence (Q07869 239-466 limits assumed): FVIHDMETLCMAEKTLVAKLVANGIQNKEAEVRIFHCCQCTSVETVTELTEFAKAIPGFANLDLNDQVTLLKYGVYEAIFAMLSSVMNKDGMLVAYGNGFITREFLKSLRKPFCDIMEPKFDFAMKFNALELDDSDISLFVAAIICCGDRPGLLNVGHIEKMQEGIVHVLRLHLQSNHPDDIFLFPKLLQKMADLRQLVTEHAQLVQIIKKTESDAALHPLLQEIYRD
Procedure: as §2

primary microglia = test: ELISA of proinflammatory cytokines, primary microglia; type: cell-based, mice; conditions: LPS or pre-aggregated human Aβ1-42, 24 h
Procedure: Primary microglia culture was conducted as described in a previous study. Mice at postnatal day 3 mice were used for the preparation of primary microglia. Newborn mice pups were anesthetized in ice and then sacrificed. Isolated cortex and hippocampus were collected after removing the meninges. Brain tissues were dissociated by incubating in HBSS (Gibco, Gaithersburg, MD, USA) with trypsin (2.5%) for 15 min. Cell homogenates were then incubated in M-CSF (20 ng/mL, R&D Systems) supplemented with DMEM-F12 medium with 10% fetal bovine serum, 10% horse serum, 1% GlutaMAX (Gibco, MD, USA), and 1% penicillin/streptomycin (Welgene, Korea). After 10 days, microglia were purified through shaking at 260 rpm for 2 h.
We measured cytokine level (TNF-α, IL-1β, and IL-6) in the media of LPS (1 μg/mL) and human Aβ1-42 (5 μg/mL)-treated BV2 microglia cells and primary microglia. Human Aβ1-42 (AnaSpec, Fremont, CA, USA) were pre-aggregated in the incubator for 24 h before the treatment to the cells. BV2 cells and primary microglia cells were seeded on 12-well plates (SPL) at a density of 1 × 10^5 cells/well cultured in 1 mL of complete media. After 12 h, LPS or human Aβ1-42 were treated to cells and were further incubated for 24 h with DTMB. […]

[1] = HEK293A, 24 h, various concentrations

COc1ccc(-c2cc(=O)oc3c(C)c(OC(=O)[C@H](Cc4c[nH]c5ccccc45)NC(=O)OC(C)(C)C)ccc23)cc1 [DTMB]
percentage of areas stained for Iba-1 and GFAP (gliosis of microglia and astrocyte) (5xFAD mice): decreased | cytotoxicity (MTT) (RAW 264.7): no cytotoxicity | cytotoxicity (MTT) (BV2): no cytotoxicity | relative luciferase activity (PPARγ; [1]): increased luciferase activity | PPARγ transactivation (luciferase reporter activity) compared to positive control (PPARγ; versus positive control): lower than the positive controls | relative luciferase activity (PPARα; [1]): increased luciferase activity | transactivation (luciferase activity) compared to positive control (PPARα; versus WY14643): stronger than the positive control | level of cytokines (TNF-α, IL-1β, IL-6) induced by inflammatory signals (primary microglia): dramatically reduced
